6 compounds from patent US7799813B2, “Salts of substituted 5-membered azacycle and use thereof in the treatment of diseases related to protein aging” (Beijing Molecule Science and Technology Co., Ltd., priority 2006, dated 2010) can be followed below.

Data set [1] has as its system AGE-BSA-collagen cross-links. The data set is described as follows: Elisa screening experiment on the breaking of AGE-BSA collagen cross-links. Conditions: 37° C., 16 hours, OD 450 nm, averages of more than three screening results. The class given is biochemical, rat. The protocol:
AGE cross-links were prepared in vitro by cross-linking AGE-BSA to rat tail tendon collagen-coated 96 well microtiter plates. ELISA method was used to evaluate the breaking effect of the compounds on AGE cross-links.
Normal Wister rats (body weight 200±20 g) were sacrificed acutely, then the tails were excised, and tail collagen was prepared at a temperature of 4° C. as follows: tail tendon collagen fibrils were taken out, washed with physiological saline, peeled off non-collagen fibril tissue, rinsed with distilled deionized water 3 times, cut into pieces, and immersed in 0.1% acetic acid at 4° C. for one week during which the immersion liquid was shaken frequently. Finally, the immersion liquid was subjected to a centrifuge treatment at 8000 G for 30 minutes, and supernatant collagen solution was collected. After dilution, protein content was measured. 96 well microtiter plates (Costar) were full-well coated with the collagen solution in an amount of 70 μg/well at 4° C. for 24 hours, then the coating solution was discarded. The plates were dried in air under sterile condition, coated with a fresh-keeping film, and finally stored at 4° C. for use.
A solution containing 50 mg/ml of bovine serum albumin BAS (V) (Roch) and 0.5M of glucose in 0.2M PBS (pH 7.4) was incubated at 37° C. under sterile condition for 3-4 months, to thereby form glycosylated BSA, i.e. BSA-AGE. At the same time, non-glycosylated BSA was prepared with glucose-free BSA. Then the BSA-AGE solution was dialyzed against 0.01M PBS (pH 7.4) to be removed of unreacted glucose. Fluorescence scanning (Exi/Em (395/460 nm)) and SDS-PAGE were used to check the formation of BSA-AGE, and protein concentration was determined by the Lowery method.
The tail collagen-coated 96 well microtiter plates were full-well treated with PBS (pH 7.4) for 1 hour to neutralize the acidic collagen. Then the plates were blocked with Superblock (PIERCE) at 37° C. for 1 hour, and washed with PBST (PBS-Tween) three times while shaking for 1 minute for each time of washing. AGE-BSA was diluted in PBS to a concentration required to obtain maximum cross-linking. 100 μl of the AGE-BSA solution was added to wells in the rows labeled as A, B, C, and D of the 96 well plates, and BSA solution of the same concentration was added to wells in the rows labeled as E, F, G, and H. The first three wells in each row were filled with PBS for the reagent blank. The plates were incubated at 37° C. for 4 hours to allow the collagen crosslink, and washed with PBST four times while shaking for 1 minute for each time of washing. Test compounds were diluted in PBS of pH 7.4. A test compound was added to quadruplicate AGE-BSA cross-links wells and quadruplicate BSA wells in an amount of 100 μl/well. PBS was added in an amount of 100 μl/well in the same way as non-breaking contrast. The plates were incubated at 37° C. for 16 hours and washed four times with PBST while shaking for 1 minute for each time of washing. 80 μl/well of Rabbit-anti-BSA antibody (1:500) was added to the wells and the plates were incubated at 37° C. for 50 minutes. After the plates were washed with PBST four times while shaking for 1 minute for each time of washing, 80 μl/well of horseradish peroxidase-labelled-goat-anti-rabbit IgG (1:1000) was added to the wells. The plates were incubated at 37° C. for 50 minutes, and then washed with PBST three times while shaking for 1 minute for each time of washing. 100 μl/well of TMB substrate (3,3′,5,5′-tetramethylbenzidine) was added to the wells. The plates were incubated at room temperature at dark place for 20 minutes. 2M H2SO4 was used to terminate the reaction. Within 10 minutes after the reaction, optical density was read at 450 nm on the BOBRAD Model 550 plate reader with the blank wells of the plates was set to 0.
The average optical density (OD) was calculated for each quadruplicate determination. […]

`Cc1sc[n+](CC(=O)OCc2ccccc2)c1C.[Br-]` [Compound 1, 3-benzyloxycarbonylmethyl-4,5-dimethyl-thiazole-3-bromide]: the entries for the “Breaking rate (decrease % in OD)” value in data set [1] (test compound 0.1 mmol/L) and in data set [1] (test compound 1 mmol/L) were 9.65 ± 3.55% and 10.81 ± 3.86%, respectively.
Broadly, the melting point is the temperature, or range, at which the solid turns liquid. Regarding `O=C(C[n+]1csc2c1CCCC2)OCc1ccccc1.[Br-]` [Compound 4, 3-benzyloxycarbonylmethyl-4,5,6,7-tetrahydro-benzothiazole-3-bromide], the melting point fell in the range of 160 to 166 °C. For the same compound, in data set [1] (test compound 0.1 mmol/L), the “Breaking rate (decrease % in OD)” value is reported as 8.45 ± 5.35%. The “Breaking rate (decrease % in OD)” value in data set [1] (test compound 1 mmol/L) is given as 7.17 ± 2.40%.
The matching figures for `Cc1csc[n+]1CC(=O)OCc1ccccc1.[Br-]` [Compound 3, 3-benzyloxycarbonylmethyl-4-methyl-thiazole-3-bromide]: 217 to 218 °C, 16.16 ± 7.07% and 26.46 ± 18.2%.
In the case of `Cc1sc[n+](CC(=O)c2ccccc2)c1C.[Cl-]` [ALT-711, reference compound], the “Breaking rate (decrease % in OD)” value in data set [1] (test compound 0.1 mmol/L) is given as 13.4 ± 6.41%; in data set [1] (test compound 1 mmol/L), 15.2 ± 8.43%.
`Cc1csc[n+]1CC(=O)O.[Br-]` [Compound 5, 3-carboxymethyl-4-methyl-thiazole-3-bromide] returned a melting point of 223 to 230 °C.
Consider `Cc1c(CCO)sc[n+]1CC(=O)OCc1ccccc1.[Br-]` [Compound 2, 3-benzyloxycarbonylmethyl-5-(2-hydroxyethyl)-4-methyl-thiazole-3-bromide], for which the “Breaking rate (decrease % in OD)” value was determined as 13.5 ± 9.53% in data set [1] (test compound 0.1 mmol/L) and 13.25 ± 10.29% in data set [1] (test compound 1 mmol/L).
